The values that follow come from PMC4718506 (Bioscience Reports, 2016).

For assay [1], the system named is glucagon receptor mutant Asp-385^7.41–Glu. As to conditions: Asp-385^7.41–Glu glucagon receptor; cited from earlier work. The text has this:
[…]. These Arg-310^5. ...

The test system of assay [2] is hGLP-1R double-Ala mutants (four sites, TM4/ECL2/TM5). Put plainly: Radioligand binding, double-Ala scan. More on the design: species or system human. The conditions noted are these: 75 pM 125I-GLP-1, >10,000-fold unlabelled GLP-1 competitor; four sites of double-Ala scan; data in Table S2.
Procedure: Flp-In HEK293 cells, cultured to confluence on five 160-cm^2 Petri dishes (pre-coated with poly-D-lysine), were washed with PBS, followed by the addition of 15 ml of ice-cold sterile double distilled water to induce cell lysis. Following 5 min incubation on ice, the ruptured cells were thoroughly washed with ice-cold PBS before being scraped from the plates and pelleted by centrifugation in a bench-top centrifuge (13,000 g for 30 min). The crude membrane pellet was resuspended in 1 ml membrane-binding solution (MBS; 50 mM HEPES pH 7.4, 2.5 mM CaCl2, 5 mM MgCl2, 0.2% BSA) and forced through a 23G needle. Aliquots (0.1 ml) were snap-frozen in liquid nitrogen and stored at −70°C. When required for assay, membranes were slowly thawed on ice before diluting to a concentration that gave total radioligand binding of <10% total counts added. […] Assays were carried out for 1 h in MultiScreen 96-well Filtration Plates (Glass fibre filters, 0.65 μm pore size, Millipore) pre-soaked in 1% non-fat milk/PBS. After the incubation, membrane-associated radioligand was harvested by transferring the assay mixture to the filtration plate housed in a vacuum manifold. […]
Binding and cAMP assays were carried out with triplicate values at each ligand concentration and with each assay being repeated at least three times. The resultant data were analysed using Prism 6 (GraphPad Software Inc.).
For assay [3], the system named is GLP-1R. As to conditions: truncation of first two residues of GLP-1; cited from earlier work.
Assay [4] has as its system GLP-1R. The conditions noted are these: truncation of first two residues of GLP-1; cited from earlier work. The source holds these as a separate data set.
For assay [5], the system named is glucagon receptor with region (ECL2 and neighbouring helical regions) replaced by GLP-1R equivalent. The conditions noted are these: ECL2 and neighbouring helical regions replaced with GLP-1R equivalent; cited from earlier work. From the text:
(§1) This putative salt bridge may play an important structural role, the disruption of which could result in a disturbance of the agonist-binding site formed by other residues in ECL2.

For another assay, the system named is glucagon receptor. As to conditions: cited from earlier work.
From the text: as §1

In assay [6] the test system is glucagon receptor with upper half replaced by GLP-1R. The conditions noted are these: upper half of glucagon receptor replaced with GLP-1R; cited from earlier work.
Assay [7] deals with GLP-1R mutant Arg-190^2.60–Ala. As to conditions: cited from earlier work.
Assay [8] concerns GLP-1R mutant Arg-190^2.60–Ala. As to conditions: cited from earlier work. The source holds these as a separate data set.

Where no end group is shown, it is not given here.

In the case of glucagon: native glucagon, in assay [1], the “effect on affinity and potency” value was “reducing the affinity and potency”.

In the case of “^125I-GLP-1: radioligand, kind gift of Novo Nordisk”, in [2], the specific binding result is “reduced specific binding”.

On to “GLP-1(9–36)amide: Truncation of the first two residues of GLP-1 (EGTFTSDVSSYLEGQAAKEFIAWLVKGR-NH2; UniProt P01275 100-127, looked up, fragment)”, for which the efficacy result with GLP-1R [3] was “substantial loss of efficacy”. Also, the affinity result in the assay on GLP-1R [4] is given as “reduced affinity”.

On to “Ser-12–glucagon: Lys-12* in native glucagon, equivalent of Ser-18* in GLP-1”, for which the affinity and potency entry in [5] was “could be rescued”; with glucagon receptor, “reduced affinity and potency”.

Turning to “Glu-3–glucagon: native glucagon has Gln-3*”, the affinity and potency result is “reduced affinity and potency” in the assay on glucagon receptor; “could be rescued” in [6].

On to “Ala-2–glucagon: Ser-2* of glucagon replaced (equivalent of Ala-8* in GLP-1)”, for which, in assay [1], the “effect on affinity and potency” value is “improve the affinity and potency”.

With “oxyntomodulin: has Gln at the 3rd position rather than Glu”, in assay [7], the effect on efficacy result is reported as “did not reduce oxyntomodulin affinity or efficacy”. In addition, the effect on affinity entry in assay [8] is “did not reduce oxyntomodulin affinity or efficacy”.
